Source: ChEMBL document CHEMBL1201862, “PubChem BioAssay data set” (2004)
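48-hour exposure; five concentrations; linearly interpolated endpoints. GI50: concentration for 50% inhibition of growth.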 Activity calls are given as the source filed them. Rule as the data show it: active = GI50 up to about 1.1 µM and inactive = higher.

What was measured:
Assay in all cases: NCI tumour cell line growth inhibition, 48 h
HOP-62 = test system: HOP-62
HT-29 = test system: HT-29
OVCAR-5 = test system: OVCAR-5
COLO 205 = test system: COLO 205
TK-10 = test system: TK-10
SF-268 = test system: SF-268
M14 = test system: M14
NCI-H23 = test system: NCI-H23
UACC-62 = test system: UACC-62
SNB-75 = test system: SNB-75
SNB-19 = test system: SNB-19
SR = test system: SR
RPMI-8226 = test system: RPMI-8226
SK-OV-3 = test system: SK-OV-3
HCT-116 = test system: HCT-116
SK-MEL-28 = test system: SK-MEL-28
NCI-H522 = test system: NCI-H522
NCI-H226 = test system: NCI-H226

Measured: GI50

CC1(C)CC2CC(CC(C)(C)C2=O)C1=O
inactive: HOP-62 > 100 µM | HT-29 > 100 µM | OVCAR-5 > 100 µM | COLO 205 > 100 µM | TK-10 > 100 µM | SF-268 > 100 µM | M14 > 100 µM | NCI-H23 > 100 µM | UACC-62 > 100 µM | SNB-75 > 100 µM | SNB-19 > 100 µM | SR > 100 µM | RPMI-8226 > 100 µM | SK-OV-3 > 100 µM | HCT-116 > 100 µM | SK-MEL-28 > 100 µM

O=C1N(c2ccccc2)C(=O)C2(SC=NN2Cc2ccccc2)N1c1ccccc1 (stereo not given)
inactive: HOP-62 > 100 µM | HT-29 > 100 µM | COLO 205 > 100 µM | TK-10 > 100 µM | SF-268 > 100 µM | NCI-H522 > 100 µM | NCI-H226 > 100 µM | M14 > 100 µM | NCI-H23 > 100 µM | UACC-62 > 100 µM | SNB-75 > 100 µM | SNB-19 > 100 µM | SR 92.7 µM | SK-OV-3 > 100 µM | HCT-116 > 100 µM | SK-MEL-28 > 100 µM

O=C(O)CSc1nnc(Cc2ccccc2)[nH]1
inactive: HOP-62 > 100 µM | HT-29 > 100 µM | OVCAR-5 > 100 µM | TK-10 > 100 µM | SF-268 > 100 µM | NCI-H522 > 100 µM | NCI-H226 > 100 µM | M14 > 100 µM | NCI-H23 > 100 µM | UACC-62 > 100 µM | SNB-19 > 100 µM | SR > 100 µM | RPMI-8226 > 100 µM | SK-OV-3 > 100 µM | HCT-116 > 100 µM | SK-MEL-28 > 100 µM

Cc1ccc(S(=O)(=O)c2c3nc4ccccc4nc3n3c2[nH]c2ccccc23)cc1
inactive: HOP-62 > 100 µM | OVCAR-5 > 100 µM | COLO 205 > 100 µM | TK-10 > 100 µM | SF-268 > 100 µM | NCI-H522 > 100 µM | M14 > 100 µM | NCI-H23 > 100 µM | UACC-62 25.7 µM | SNB-75 > 100 µM | SNB-19 > 100 µM | SR > 100 µM | RPMI-8226 > 100 µM | SK-OV-3 > 100 µM | HCT-116 > 100 µM | SK-MEL-28 > 100 µM

CCOc1cccc2ccc[n+](CC)c12
inactive: HOP-62 > 100 µM | HT-29 47.3 µM | OVCAR-5 > 100 µM | COLO 205 40.8 µM | TK-10 > 100 µM | SF-268 12.2 µM | NCI-H522 16.4 µM | NCI-H226 > 100 µM | M14 > 100 µM | NCI-H23 15.9 µM | UACC-62 > 100 µM | SNB-75 > 100 µM | SNB-19 > 100 µM | RPMI-8226 > 100 µM | SK-OV-3 > 100 µM | HCT-116 37.1 µM | SK-MEL-28 > 100 µM

CNS(=O)(=O)NN(C)S(=O)(=O)c1ccc(OC)cc1
inactive: HOP-62 > 100 µM | HT-29 > 100 µM | COLO 205 > 100 µM | TK-10 > 100 µM | SF-268 > 100 µM | NCI-H522 > 100 µM | NCI-H226 > 100 µM | M14 > 100 µM | NCI-H23 > 100 µM | UACC-62 > 100 µM | SNB-75 > 100 µM | SNB-19 > 100 µM | SR > 100 µM | RPMI-8226 > 100 µM | HCT-116 > 100 µM

CC(C)NC1CCCCC2c3cc(F)ccc3[C@]12O (stereo not given in full)
inactive: HOP-62 > 100 µM | HT-29 > 100 µM | OVCAR-5 > 100 µM | COLO 205 > 100 µM | TK-10 > 100 µM | SF-268 > 100 µM | NCI-H522 > 100 µM | NCI-H226 > 100 µM | M14 > 100 µM | NCI-H23 > 100 µM | UACC-62 > 100 µM | SNB-75 > 100 µM | SNB-19 > 100 µM | RPMI-8226 > 100 µM | SK-OV-3 > 100 µM | HCT-116 > 100 µM | SK-MEL-28 > 100 µM

COc1ccc2c3c1C(=O)CCC3CO2 (stereo not given)
inactive: HOP-62 > 100 µM | HT-29 > 100 µM | OVCAR-5 > 100 µM | COLO 205 > 100 µM | TK-10 > 100 µM | SF-268 > 100 µM | NCI-H522 > 100 µM | M14 > 100 µM | NCI-H23 > 100 µM | UACC-62 > 100 µM | SNB-19 > 100 µM | RPMI-8226 > 100 µM | SK-OV-3 > 100 µM | HCT-116 > 100 µM | SK-MEL-28 > 100 µM

C=C(CN(C)C)C(=O)c1ccc(C(=O)C(=C)CN(C)C)cc1
inactive: HT-29 > 100 µM | OVCAR-5 > 100 µM | COLO 205 > 100 µM | TK-10 > 100 µM | SF-268 > 100 µM | NCI-H522 > 100 µM | NCI-H226 > 100 µM | M14 > 100 µM | NCI-H23 > 100 µM | UACC-62 > 100 µM | SNB-75 > 100 µM | SNB-19 > 100 µM | SR > 100 µM | RPMI-8226 > 100 µM | SK-OV-3 > 100 µM | HCT-116 > 100 µM | SK-MEL-28 > 100 µM
